{"source": "patent US20180203025A1", "about": "“HDL THERAPY MARKERS” (Cerenis Therapeutics Holding SA, priority 2014, published 2018)", "origin": "cited, not measured here", "key": {"[1]": {"details": "added to 80 mg atorvastatin, cited from earlier work"}, "[2]": {"details": "associated to statin; cited from earlier work"}, "[3]": {"details": "ACS patients, cited from earlier work"}, "[4]": {"details": "compared to atorvastatin; cited from earlier work"}}, "note": "Read-outs that look alike come from different tables or passages of the source.", "data": [{"smiles": "CCOC(=O)N1c2ccc(C(F)(F)F)cc2[C@@H](N(Cc2cc(C(F)(F)F)cc(C(F)(F)F)c2)C(=O)OC)C[C@H]1CC", "note": "[torcetrapib]", "values": [{"measurement": "HDL-cholesterol increase", "setting": "[1]; compared to Atorvastatin alone", "value": 80, "unit": "%"}, {"measurement": "LDL-cholesterol decrease", "setting": "[1]; compared to Atorvastatin alone", "value": 25, "unit": "%"}, {"measurement": "mortality and morbidity", "setting": "[1]; 15 067 patients", "value": "increase of the mortality and morbidity"}, {"measurement": "further decrease of LDL-cholesterol", "setting": "[2]", "value": "about 40%"}]}, {"smiles": "Cc1cc(C)c2c(c1)[C@@H](N(Cc1cc(C(F)(F)F)cc(C(F)(F)F)c1)c1nnn(C)n1)CCCN2C[C@H]1CC[C@H](C(=O)O)CC1", "note": "[evacetrapib]", "values": [{"measurement": "further decrease of LDL-cholesterol", "setting": "[2]", "value": "about 40%"}]}, {"smiles": "CCC(CC)CC1(C(=O)Nc2ccccc2SC(=O)C(C)C)CCCCC1", "note": "[dalcetrapib]", "values": [{"measurement": "ApoA-I increase", "setting": "[3]", "value": 18, "unit": "%"}, {"measurement": "HDL-cholesterol increase", "setting": "[3]", "value": "about 30%"}, {"measurement": "LDL-cholesterol", "setting": "[3]", "value": "no changes in LDL-cholesterol"}, {"measurement": "clinical benefit compared to placebo", "setting": "[3]; interim analysis", "value": "no benefit"}, {"measurement": "LDL-cholesterol", "setting": "[2]", "value": "remains unchanged"}]}, {"smiles": "COc1cc(F)c(C(C)C)cc1-c1ccc(C(F)(F)F)cc1CN1C(=O)O[C@H](c2cc(C(F)(F)F)cc(C(F)(F)F)c2)[C@@H]1C", "note": "[anacetrapib]", "values": [{"measurement": "HDL-cholesterol increase", "setting": "[4]", "value": "about 140%"}, {"measurement": "LDL-cholesterol lowering", "setting": "[4]", "value": 40, "unit": "%"}, {"measurement": "further decrease of LDL-cholesterol", "setting": "[2]", "value": "about 40%"}]}]}
